According to patent US6962909B2, “Treatment of neovascularization disorders with squalimine” (Genaera Corporation, priority 1995, dated 2005):
Converted amounts (≈) assume the structure as drawn.

What was measured:
Assay in all cases: Antibiotic activity, MIC
E. coli = type: cell-based; conditions: Escherichia coli
C. albicans = conditions: Candida albicans
S. aureus = type: cell-based; conditions: Staphylococcus aureus
P. aerug = test system: P. aerug

Structure (SMILES) | MIC (E. coli) [µg/mL] | MIC (C. albicans) [µg/mL] | MIC (S. aureus) [µg/mL] | MIC (P. aerug) [µg/mL]
CC(C)C(O)CCC(C)[C@H]1CCC2C3C(CC[C@@]21C)[C@@]1(C)CC[C@H](NCCCNCCCCN(C)C)C[C@@H]1C[C@H]3O (some centres unmarked) | 64 (≈ 111 µM) | 64 (≈ 111 µM) | 8 to 16 (≈ 13.9 to 27.8 µM) | 128 (≈ 222 µM)
CC(C)CCCC(C)[C@H]1CCC2C3CC[C@H]4C[C@@H](NCCCNCCCCN)CC[C@]4(C)C3CC[C@@]21C (some centres unmarked) | 128 to 256 (≈ 248 to 496 µM) | 256 (≈ 496 µM) | 8 (≈ 15.5 µM) | 128 (≈ 248 µM)
CC(C)CCCC(C)[C@H]1CCC2C3CC[C@H]4C[C@H](NCCCNCCCCN)CC[C@]4(C)C3CC[C@@]21C (some centres unmarked) | 128 (≈ 248 µM) | 128 (≈ 248 µM) | 2 to 4 (≈ 3.88 to 7.75 µM) | 128 (≈ 248 µM)
CC(CCC(=O)O)[C@H]1CCC2C3CC[C@H]4C[C@@H](NCCCNCCCCN)CC[C@]4(C)C3CC[C@@]21C (some centres unmarked) | 32 to 64 (≈ 63.5 to 127 µM) | 8 (≈ 15.9 µM) | 64 (≈ 127 µM) | 32 (≈ 63.5 µM)
CC(CCC(=O)O)[C@H]1CCC2C3CC[C@H]4C[C@H](NCCCNCCCCN)CC[C@]4(C)C3CC[C@@]21C (some centres unmarked) | 32 (≈ 63.5 µM) | > 256 | 128 (≈ 254 µM) | 64 (≈ 127 µM)
CC(C)CCCC(C)[C@H]1CCC2C3CC[C@H]4C[C@H](NCCCNCCCCNCCCN)CC[C@]4(C)C3CC[C@@]21C (some centres unmarked) | 64 to 128 (≈ 112 to 223 µM) | 16 to 32 (≈ 27.9 to 55.8 µM) | 8 (≈ 14 µM) | 64 (≈ 112 µM)
CC(C)C(O)CCC(C)[C@H]1CCC2C3C(CC[C@@]21C)[C@@]1(C)CC[C@@H](NCCCNCCCCN)C[C@@H]1C[C@H]3O (some centres unmarked) | 128 (≈ 234 µM) | 64 (≈ 117 µM) | 16 to 32 (≈ 29.2 to 58.4 µM) | 256 (≈ 467 µM)
CC(C)C(CCC(C)[C@H]1CCC2C3C(CC[C@@]21C)[C@@]1(C)CC[C@@H](NCCCNCCCCN)C[C@@H]1C[C@H]3O)OS(=O)(=O)O (some centres unmarked) | 4 to 8 (≈ 6.37 to 12.7 µM) | 16 (≈ 25.5 µM) | 2 to 4 (≈ 3.18 to 6.37 µM) | 16 (≈ 25.5 µM)
COC(=O)CCC(C)[C@H]1CCC2C3C(CC[C@@]21C)[C@@]1(C)CC[C@H](NCCCNCCCCN)C[C@@H]1C[C@H]3O (some centres unmarked) | 32 (≈ 59.9 µM) | 32 (≈ 59.9 µM) | 4 to 8 (≈ 7.49 to 15 µM) | 64 (≈ 120 µM)
CC(CCC(=O)O)[C@H]1CCC2C3C(CC[C@@]21C)[C@@]1(C)CC[C@H](NCCCNCCCCN)C[C@@H]1C[C@H]3O (some centres unmarked) | 64 (≈ 123 µM) | 128 (≈ 246 µM) | 32 (≈ 61.6 µM) | 32 (≈ 61.6 µM)
CC(CCC(=O)O)[C@H]1CCC2C3C(CC[C@@]21C)[C@@]1(C)CC[C@@H](NCCCNCCCCN)C[C@@H]1C[C@H]3O (some centres unmarked) | 64 (≈ 123 µM) | 32 (≈ 61.6 µM) | 16 (≈ 30.8 µM) | 32 (≈ 61.6 µM)
CC(C)CCCC(C)[C@H]1CCC2C3CC[C@H]4C[C@H](NCCCN5CCCCN=C5N)CC[C@]4(C)C3CC[C@@]21C (some centres unmarked) | > 256 | 32 (≈ 59.2 µM) | 2 (≈ 3.7 µM) | > 256
COC(=O)CCC(C)[C@H]1CCC2C3C(CC[C@@]21C)[C@@]1(C)CC[C@@H](NCCCNCCCCN)C[C@@H]1C[C@H]3O (some centres unmarked) | 64 (≈ 120 µM) | 32 (≈ 59.9 µM) | 4 (≈ 7.49 µM) | 64 (≈ 120 µM)
COC(=O)CCC(C)[C@H]1CCC2C3C(CC[C@@]21C)[C@@]1(C)CCC(NCCCNCCCCNCCCN)C[C@@H]1C[C@H]3O (some centres unmarked) | 32 (≈ 54.2 µM) | 64 (≈ 108 µM) | 4 (≈ 6.77 µM) | 64 (≈ 108 µM)
